Among the data in ChEMBL document CHEMBL3638586, “Inhibition of memapsin 1 cleavage in the treatment of diabetes” (2015) are Ki and IC50 values, retold here.

Structures are written as SMILES.

In one experiment the target is Beta-secretase 1 (Homo sapiens, UniProt P56817). The experiment is described as follows: (§1) Inhibition Assay: Previously, one of the following compounds discussed below have been studied in memapsin 2 inhibition (Ghosh et al., 2008), which the others are previously unpublished. Given the closely related substrate specificity for memapsin 1 and memapsin 2, the inventors chose to screen these previously identified memapsin 2 inhibitors for lead compounds as memapsin 1 inhibitors. Recombinant memapsin 1 ectodomain was prepared as described by Turner et al. (2002) and assayed using a commercially purchased fluorescent substrate.
Sequence of Beta-secretase 1 (P56817 whole entry, the tested form may be a part): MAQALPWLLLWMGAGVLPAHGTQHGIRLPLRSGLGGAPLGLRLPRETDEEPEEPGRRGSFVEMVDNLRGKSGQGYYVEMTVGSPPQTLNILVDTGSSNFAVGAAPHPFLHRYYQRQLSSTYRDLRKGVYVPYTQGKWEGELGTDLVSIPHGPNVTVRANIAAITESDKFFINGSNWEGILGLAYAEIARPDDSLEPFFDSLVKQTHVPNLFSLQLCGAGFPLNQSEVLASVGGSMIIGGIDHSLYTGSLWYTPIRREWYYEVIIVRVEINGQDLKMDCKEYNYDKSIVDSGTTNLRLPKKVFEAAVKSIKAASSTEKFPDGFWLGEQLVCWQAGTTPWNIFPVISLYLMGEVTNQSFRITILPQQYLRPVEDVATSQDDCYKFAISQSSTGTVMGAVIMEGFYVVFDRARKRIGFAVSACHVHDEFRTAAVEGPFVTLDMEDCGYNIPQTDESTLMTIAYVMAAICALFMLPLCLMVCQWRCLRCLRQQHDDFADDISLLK

The target of a further experiment is T1, Beta-secretase 2 (Homo sapiens, UniProt Q9Y5Z0).
T1 sequence (Q9Y5Z0 whole entry): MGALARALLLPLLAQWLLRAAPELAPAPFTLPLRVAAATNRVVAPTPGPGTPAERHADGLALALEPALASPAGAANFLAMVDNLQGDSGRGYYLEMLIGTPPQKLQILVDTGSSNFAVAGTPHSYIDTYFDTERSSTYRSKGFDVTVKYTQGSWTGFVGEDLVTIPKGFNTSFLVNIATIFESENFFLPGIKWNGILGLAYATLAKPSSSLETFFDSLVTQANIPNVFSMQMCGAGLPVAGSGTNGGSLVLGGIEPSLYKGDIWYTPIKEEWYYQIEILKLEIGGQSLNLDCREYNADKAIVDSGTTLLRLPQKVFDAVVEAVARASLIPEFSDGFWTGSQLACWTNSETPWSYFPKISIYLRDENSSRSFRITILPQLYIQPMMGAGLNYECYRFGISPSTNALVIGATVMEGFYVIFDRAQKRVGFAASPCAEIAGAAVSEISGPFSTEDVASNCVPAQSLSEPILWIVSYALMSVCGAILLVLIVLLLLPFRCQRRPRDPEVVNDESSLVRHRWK
The description is as §1.

What is called Ki is the dissociation constant of the complex between target and ligand, obtained from inhibition or displacement. `CCCC(O)C(NCC(O)C(Cc1ccccc1)NC(=O)c1cccc(C(=O)N2CCCC2OC)c1)C(=O)NCC(C)C` (stereo not drawn): the results for the Ki at Beta-secretase 1 and at Beta-secretase 2 were 267 nM and 76.6 nM, respectively. For the molecule `CC(C)CNC(=O)C(NCC(O)C(Cc1ccccc1)NC(=O)c1cc(C(=O)NC(C)c2ccc(I)cc2)cc(N(C)S(C)(=O)=O)c1)C(C)O` (stereo not drawn), the Ki on Beta-secretase 2 worked out at 89 nM. A word on the IC50: it is the concentration that gives 50% inhibition. Turning to `COc1cccc(C(NCC(O)C(Cc2ccccc2)NC(=O)c2cc(C(=O)NC(C)c3ccccc3)cc(N(C)S(C)(=O)=O)c2)C(C)O)c1` (stereo not drawn), the IC50 at Beta-secretase 2 came to 350 nM. For the molecule `Cc1cc(C(=O)NC(Cc2ccccc2)C(O)CNC(C(=O)NCC(C)C)C(C)O)cc(C(=O)N(C)C(C)c2ccccc2)c1` (stereo not drawn), the Ki on Beta-secretase 1 amounted to 1660 nM; on Beta-secretase 2, 1 nM. For the molecule `CC(CN1Cc2cc(Oc3ccccc3)ccc2N=C1N)C(=O)NCCC(C)(C)C` (stereo not drawn), on Beta-secretase 2, the IC50 came to 500 nM. As to `COCC(NC(=O)OCC(C1CCCCC1)N1Cc2cc(Oc3ccccc3)ccc2N=C1N)C(=O)N(C)C` (stereo not drawn), on Beta-secretase 2, the Ki was 350 nM. Still for that read-out and setting: the figure for `CCCC(O)N(NC[C@H](Cc1ccccc1)NC(=O)c1cc2c3c(c1)c(CC)cn3CC1(CC1)S(=O)(=O)N2C)C(=O)NCC(C)C` (stereo partly drawn) is 11 nM. On the same count and under the same terms, the figure for `NC1=Nc2ccc(Oc3ccccc3)cc2CN1C(CCC(=O)N(CC1CCC(=O)N1)C1CCCCC1)C1CCCCC1` (stereo not drawn) is 48 nM.

Regarding `CC(C)CNC(=O)C(NCC(O)C(Cc1ccccc1)NC(=O)c1cc(C(=O)NC(C)c2ccccc2)cc(N(C)S(C)(=O)=O)c1)C(C)O` (stereo not drawn), the Ki at Beta-secretase 2 turned out to be 37 nM. Still for that read-out and setting: to `CCc1cn2c3c(cc(C(=O)N[C@@H](Cc4ccccc4)C(O)CNCc4cccc(C(F)(F)F)c4)cc13)N(C)S(=O)(=O)C1(CC1)C2` (stereo partly drawn) belongs 521 nM; to `CSC[C@H](NC(=O)C1NOC2OCCC21)C(=O)NC(CC(C)C)[C@@H](O)CC(C)C(=O)NC(C(=O)N(C)C)C(C)C` (stereo partly drawn), 46 nM; to `Cc1ncsc1CN(C(=O)CCC(C1CCCCC1)N1Cc2cc(Oc3ccccc3)ccc2N=C1N)C1CCCCC1` (stereo not drawn), 53 nM.

Consider `COc1ccc(C(C(C)O)C(Cc2ccccc2)NC(=O)c2cc(C(=O)NC(C)c3ccccc3)cc(N(C)S(C)(=O)=O)c2)cc1` (stereo not drawn), for which the IC50 at Beta-secretase 2 was 700 nM. Consider `CCCC(O)C(NCC(O)C(Cc1ccccc1)NC(=O)c1cc(C)cc(C(=O)N(C)C(C)c2ccccc2)c1)C(=O)NCC(C)C` (stereo not drawn), for which the Ki turned out to be 563 nM on Beta-secretase 1 and 0.0014 nM at Beta-secretase 2. In the case of `Cc1oncc1CN(C(=O)CCC(C1CCCCC1)N1Cc2cc(Oc3ccccc3)ccc2N=C1N)C1CCCCC1` (stereo not drawn), on Beta-secretase 2, the inhibition constant Ki amounted to 70 nM.

Consider `CC(C)CN1CCNC(C(O)C(Cc2ccccc2)NC(=O)c2cc(C(=O)NC(C)c3ccccc3)cc(N(C)S(C)(=O)=O)c2)C1` (stereo not drawn), for which the Ki at Beta-secretase 2 amounted to 6060 nM. The same measure, in the same setting: to `CCc1cn2c3c(cc(C(=O)N[C@@H](Cc4ccccc4)[C@H](O)CNC(COC)c4cccc(C(F)(F)F)c4)cc13)N(C)S(=O)(=O)C1(CC1)C2` (stereo partly drawn) belongs 199 nM. As for `CCCC(O)C(NCC(O)C(Cc1ccccc1)NC(=O)c1cc(C)cc(C(=O)N2CCCC2OC)c1)C(=O)NCC(C)C` (stereo not drawn), the values for the Ki at Beta-secretase 1 and on Beta-secretase 2 were 6.56 nM and 19.7 nM, respectively.

As for `CC(C)CNC(=O)C(NCC(O)C(Cc1ccccc1)NC(=O)c1cccc(C(=O)N(C)C(C)c2ccccc2)c1)C(C)O` (stereo not drawn), the Ki on Beta-secretase 1 came out at 5810 nM; on Beta-secretase 2, 63.1 nM. In the case of `CCCC(O)N(NC[C@H](Cc1ccccc1)NC(=O)c1cc2c3c(c1)c(CC)cn3CC1(CC1)S(=O)(=O)N2C)C(=O)NC(C)C` (stereo partly drawn), on Beta-secretase 2, the Ki worked out at 30 nM.

Consider `CC(C)CC(NC(=O)[C@H](CS(C)(=O)=O)NC(=O)C1NOC2OCCC21)[C@@H](O)CC(C)C(=O)NC(C(=O)N(C)C)C(C)C` (stereo partly drawn), for which the Ki on Beta-secretase 2 amounted to 53 nM.

For `CCCC(O)C(NCC(O)C(Cc1ccccc1)NC(=O)c1cccc(C(=O)N(C)C(C)c2ccccc2)c1)C(=O)NCC(C)C` (stereo not drawn), the Ki at Beta-secretase 1 turned out to be 5250 nM; on Beta-secretase 2 it was 0.02 nM.
